According to ChEMBL document CHEMBL5113518, “Discovery of a Novel G-Quadruplex and Histone Deacetylase (HDAC) Dual-Targeting Agent for the Treatment of Triple-Negative Breast Cancer” (J Med Chem, 2022):
Calls of active or inactive are those of the source. The rule behind the calls is not given here.

Tests used:
Quadruplex DNA [1] = conditions: dose 1.0 µM
Description: Binding affinity to 5' FAM and 3' TAMRA-labeled c-myc G4-quadruplex DNA Pu22 (unknown origin) assessed as change in melting temperature at 1 uM by fluorescence resonance energy transfer assay

Quadruplex DNA [2] = assay: Binding affinity to 5' FAM-labeled c-myc G4-quadruplex DNA Pu22 (unknown origin) by fluorescence quench assay; assay type: nucleic-acid assay
Histone deacetylase [3] = assay: Inhibition of HDAC in human HeLa nuclear extract incubated for 30 mins by fluorescence-based Glo-luminescence assay; assay type: cell-based
Quadruplex DNA [4] = assay: Binding affinity to 5' FAM-labeled c-myc G4-quadruplex DNA Pu22 (unknown origin) assessed as dissociation constant by surface plasmon resonance assay; assay type: nucleic-acid assay
Quadruplex DNA [5] = assay: Binding affinity to 5' FAM-labeled […] (unknown origin) assessed as dissociation constant by surface plasmon resonance assay; assay type: nucleic-acid assay
Quadruplex DNA [6] = assay: Binding affinity to 5' FAM-labeled c-myc G4-quadruplex DNA HTG21 (unknown origin) assessed as dissociation constant by surface plasmon resonance assay; assay type: nucleic-acid assay
Quadruplex DNA [7] = assay: Binding affinity to 5' FAM and 3' TAMRA-labeled […] (unknown origin) assessed as change in melting temperature by fluorescence resonance energy transfer assay; assay type: nucleic-acid assay
Quadruplex DNA [8] = assay: Binding affinity to 5' FAM and 3' TAMRA-labeled c-myc G4-quadruplex DNA HTG21 (unknown origin) assessed as change in melting temperature by fluorescence resonance energy transfer assay; assay type: nucleic-acid assay
Quadruplex DNA [9] = assay: Binding affinity to 5' FAM and 3' TAMRA-labeled c-myc G4-quadruplex DNA duplex (unknown origin) assessed as change in melting temperature by fluorescence resonance energy transfer assay; assay type: nucleic-acid assay
[10] = Stabilization of DNA Pu22 (unknown origin ) single strand assessed as G4-quadruplex formation up to 30 uM in presence of potassium ions by spectrum based circular dichroism analysis
[11] = Stabilization of DNA Pu22 (unknown origin ) single strand assessed as G4-quadruplex formation in absence of potassium ions by spectrum based circular dichroism analysis; conditions: dose <= 30.0 µM; DDE = dose-dependent effect
Histone deacetylase [12] = assay: Inhibition of HDAC in human MDA-MB-231 cells incubated for 45 mins by luminescence assay; assay type: cell-based
MDA-MB-231 [13] = assay: Cytotoxicity against human MDA-MB-231 cells harboring wild type BRCA1 and wild BRCA2 assessed as reduction in cell viability; assay type: functional, cell-based
MDA-MB-468 = assay: Cytotoxicity against human MDA-MB-468 cells harboring wild type BRCA1 and BRCA2 mutant reduction in assessed as cell viability; assay type: functional, cell-based
SUM-159-PT = assay: Cytotoxicity against human SUM159PT cells harboring wild type BRCA1 and wild type BRCA2 assessed as reduction in cell viability; assay type: functional, cell-based
BT-549 = assay: Cytotoxicity against human BT-549 cells harboring wild type BRCA1 and wild type BRCA2 assessed as reduction in cell viability; assay type: functional, cell-based
MDA-MB-231 [14] = assay: Antitumor activity against human MDA-MB-231 cells xenografted in BALB/c-nu/nu mouse assessed as increment ratio at 10 mg/kg, ip measured for 31 days; assay type: functional; conditions: time 31 day
MDA-MB-231 [15] = assay: Antitumor activity against human MDA-MB-231 cells xenografted in BALB/c-nu/nu mouse assessed as tumor growth inhibition at 10 mg/kg, ip measured for 31 days; assay type: functional; conditions: MDA-MB-231, 744 h, time 31 day, read-out: TGI

SMILES	ΔTm (Quadruplex DNA [1])	DC50 (Quadruplex DNA [2])	IC50 (Histone deacetylase [3])	other results
Nc1ccccc1NC(=O)c1ccc(CNC(=O)OCc2cccnc2)cc1	0.1 °C	–	–	–
CN1CCN(c2cc3nc4n(c(=O)c3cc2F)CC/C4=C\c2ccc(C(=O)NO)cc2)CC1	5.7 °C	2.9 µM	–	–
CN(C)CCCNC(=O)c1ccc(/C=C2\CCn3c2nc2cc(N4CCN(Cc5ccc(/C=C/C(=O)NO)cc5)CC4)c(F)cc2c3=O)cc1.Cl	1.8 °C	0.2 µM	1.9 µM	–
Cl.O=C(CCCCCCNC(=O)c1ccc(/C=C2\CCn3c2nc2cc(NCCCN4CCCC4)c(F)cc2c3=O)cc1)NO	3.2 °C	3 µM	0.05 µM	–
CN(C)CCCNC(=O)c1ccc(/C=C2\CCn3c2nc2cc(N4CCN(CCCCCC(=O)NO)CC4)c(F)cc2c3=O)cc1.Cl	17.3 °C	0.9 µM	1.6 µM	–
CN(C)CCCNC(=O)c1ccc(/C=C2\CCn3c2nc2cc(N4CCN(CCCCCCC(=O)NO)CC4)c(F)cc2c3=O)cc1.Cl	15.9 °C	1.7 µM	2.1 µM	–
CN(C)CCCNC(=O)c1ccc(/C=C2\CCn3c2nc2cc(N4CCN(CCCC(=O)NO)CC4)c(F)cc2c3=O)cc1	16.4 °C	1.3 µM	–	–
CN(C)CCCNC(=O)c1ccc(/C=C2\CCn3c2nc2ccc(OCCCCCCC(=O)NO)cc2c3=O)cc1.Cl	4.4 °C	0.9 µM	0.06 µM	–
Nc1ccccc1NC(=O)c1ccc(/C=C2\CCn3c2nc2cc(NCCCN4CCCC4)c(F)cc2c3=O)cc1	0.6 °C	0.6 µM	8.6 µM	–
CN(C)CCCNC(=O)c1ccc(/C=C2\CCn3c2nc2cc(N4CCN(CCCCCCCC(=O)Nc5ccccc5N)CC4)c(F)cc2c3=O)cc1	8.2 °C	1.2 µM	–	–
CCN(CC)CCCNC(=O)c1ccc(/C=C2\CCn3c2nc2cc(NCCCN4CCCC4)c(F)cc2c3=O)cc1	17.4 °C	1.4 µM	–	Kd (Quadruplex DNA [4]): 1.8 µM; Kd (Quadruplex DNA [5]): 3.6 µM; Kd (Quadruplex DNA [6]): > 10 µM; ΔTm (Quadruplex DNA [7]): 6.4 °C; ΔTm (Quadruplex DNA [8]): 7.3 °C; ΔTm (Quadruplex DNA [9]): 1.8 °C; Activity [10]: Active; Activity [11]: Dde; IC50 (Histone deacetylase [12]): > 10 µM; IC50 (MDA-MB-231 [13]): 10.7 µM; IC50 (MDA-MB-468): 47.1 µM; IC50 (SUM-159-PT): 47.3 µM; IC50 (BT-549): 14.6 µM; T/C (MDA-MB-231 [14]): 69.7%; inhibition in vivo at 10 mg/kg (MDA-MB-231 [15]): 48.2%
CN(C)CCCNC(=O)c1ccc(/C=C2\CCn3c2nc2cc(NCCCCCCC(=O)NO)c(F)cc2c3=O)cc1.Cl	7.2 °C	0.3 µM	0.07 µM	–
CN1CCN(c2cc3nc4n(c(=O)c3cc2F)CC/C4=C\c2ccc(C(=O)Nc3ccccc3N)cc2)CC1	0.3 °C	0.2 µM	–	–
CN(C)CCCNC(=O)c1ccc(/C=C2\CCn3c2nc2cc(N4CCN(CCCCC(=O)NO)CC4)c(F)cc2c3=O)cc1.Cl	16.7 °C	0.8 µM	1.5 µM	–
CN(C)CCCNc1cc2nc3n(c(=O)c2cc1F)CC/C3=C\c1ccc(C(=O)Nc2ccccc2N)cc1	2.3 °C	0.2 µM	5.8 µM	–
CN(C)CCCNC(=O)c1ccc(/C=C2\CCn3c2nc2cc(N4CCN(Cc5ccc(/C=C/C(=O)Nc6ccccc6N)cc5)CC4)c(F)cc2c3=O)cc1	0.7 °C	0.3 µM	8.1 µM	–
O=C(CCCCCCC(=O)Nc1ccccc1)NO [VORINOSTAT]	–	–	–	IC50 (MDA-MB-468): 2.3 µM; IC50 (BT-549): 2.3 µM; T/C (MDA-MB-231 [14]): 39.3%
CN(C)CCCNC(=O)c1ccc(/C=C2\CCn3c2nc2cc(N4CCN(Cc5ccc(C(=O)NO)cc5)CC4)c(F)cc2c3=O)cc1.Cl	4.3 °C	0.2 µM	2.5 µM	–
